In PubChem BioAssay AID248 (DTP/NCI, 2004) one finds T/C data, which are given here for 15 molecules.

In this test the test system is L1210 leukemia ip in BDF1 mice, survival T/C. Kind of test: NCI In Vivo Anticancer Drug Screen. Data for tumor model L1210 Leukemia (intraperitoneal) in B6D2F1 (BDF1) mice. Conditions: endpoint: mean survival time, higher = longer survival. The procedure, abridged: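 In this screen, tumor-bearing mice given compound are compared to those given vehicle, and their survival values are reported as a treated-to-control quotient.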

The mark [1] stands for this setting: dose: 100.0 mg/kg/injection, schedule: Q01DX009 (ip), vehicle: saline with Tween-80.
The mark [2] stands for this setting: dose: 200.0 mg/kg/injection, schedule: Q01DX009 (ip), vehicle: saline with Tween-80.
Where [3] appears, read: dose: 100.0 mg/kg/injection, schedule: Q04DX003 (ip), vehicle: Klucel (hydroxypropylcellulose) (HPC).
[4] abbreviates: dose: 200.0 mg/kg/injection, schedule: Q04DX003 (ip), vehicle: Klucel (hydroxypropylcellulose) (HPC).
The mark [5] stands for this setting: dose: 400.0 mg/kg/injection, schedule: Q04DX003 (ip), vehicle: Klucel (hydroxypropylcellulose) (HPC).
Setting [6] is: dose: 100.0 mg/kg/injection, schedule: Q01DX001 (ip), vehicle: carboxymethylcellulose (CMC).
Where [7] appears, read: dose: 200.0 mg/kg/injection, schedule: Q01DX001 (ip), vehicle: carboxymethylcellulose (CMC).
[8] abbreviates: dose: 400.0 mg/kg/injection, schedule: Q01DX001 (ip), vehicle: carboxymethylcellulose (CMC).
Setting [9] is: dose: 50.0 mg/kg/injection, schedule: Q01DX001 (ip), vehicle: carboxymethylcellulose (CMC).
[10] abbreviates: dose: 100.0 mg/kg/injection, schedule: Q04DX003 (ip), vehicle: saline with Tween-80.
Setting [11] is: dose: 200.0 mg/kg/injection, schedule: Q04DX003 (ip), vehicle: saline with Tween-80.
[12] abbreviates: dose: 400.0 mg/kg/injection, schedule: Q04DX003 (ip), vehicle: saline with Tween-80.
The mark [13] stands for this setting: dose: 50.0 mg/kg/injection, schedule: Q01DX009 (ip), vehicle: Klucel (hydroxypropylcellulose) (HPC).
[14] abbreviates: dose: 100.0 mg/kg/injection, schedule: Q01DX009 (ip), vehicle: Klucel (hydroxypropylcellulose) (HPC).

Molecules are shown by their SMILES. Several values for one entry are separate records, joined by “and”; a condition that tells them apart may be missing. Equal values may be shown once. Toxic doses and inconclusive results are not listed.

Regarding `CC(C)CC(Br)C(=O)NCC(=O)NC(Cc1ccccc1)C(=O)O` (centres undefined), the T/C by setting is: under setting [1], 96 % of control; under setting [2], 93 % of control.

With `O=S(=O)(Nc1ccc2ccccc2c1)c1cccc2cccnc12`, the T/C by setting is: under setting [3], 98 % of control; under setting [4], 93 % of control; under setting [5], 95 % of control.

Take `CC(=O)c1ccc2c(c1)C(=O)c1ccccc1-2`: the T/C is 92 % of control under setting [6], 93 % of control under setting [7] and 93 % of control under setting [8].

Consider `CCOC(=O)CNC(=O)C(=[N+]=[N-])C(=O)COc1ccc(F)cc1`, for which the T/C was 104 % of control under setting [9], 95 % of control under setting [6], 101 % of control under setting [7] and 90 % of control under setting [8].

Consider `Cc1ccc(NC(=O)NCCOc2ccc(Br)cc2)c([N+](=O)[O-])c1`, for which the T/C is 98 % of control (dose: 50.0 mg/kg/injection, schedule: Q01DX009 (ip), vehicle: saline with Tween-80); 95 % of control under setting [1]; 92 % of control under setting [10]; 95 % of control under setting [2]; 91 % of control under setting [11]; 100 % of control under setting [12].

Consider `O=C1c2cscc2C(=O)c2c(Cl)sc(Cl)c21`, for which the T/C (dose: 100.0 mg/kg/injection, schedule: Q04DX003 (ip), vehicle: acetone) is 102 % of control.

For the molecule `CCCCNC(=O)COc1c(C)cccc1Cl`, the T/C is, setting by setting: (dose: 25.0 mg/kg/injection, schedule: Q04DX002 (ip), vehicle: saline with Tween-80) 101 % of control; (dose: 50.0 mg/kg/injection, schedule: Q04DX002 (ip), vehicle: saline with Tween-80) 96 % of control; (dose: 100.0 mg/kg/injection, schedule: Q04DX002 (ip), vehicle: saline with Tween-80) 96 % of control.

Consider `Cc1nc2ccccc2nc1CI`, for which the T/C (dose: 3.12 mg/kg/injection, schedule: Q01DX009 (ip), vehicle: acetone) was 100 % of control; the T/C (dose: 6.25 mg/kg/injection, schedule: Q01DX009 (ip), vehicle: acetone) was 104 % of control; the T/C (dose: 12.5 mg/kg/injection, schedule: Q01DX009 (ip), vehicle: acetone) was 100 % of control; the T/C (dose: 12.5 mg/kg/injection, schedule: Q04DX003 (ip), vehicle: acetone) is 113 % of control; the T/C (dose: 18.0 mg/kg/injection, schedule: Q01DX009 (ip), vehicle: saline with Tween-80) is 92 % of control.

On to `CC(=O)NC(COC(C)=O)C1OC(C)(C)OC1C(COC(C)=O)OC(C)=O` (centres undefined), for which the T/C is 101 % of control (dose: 100.0 mg/kg/injection, schedule: Q01DX001 (ip), vehicle: saline); 104 % of control (dose: 200.0 mg/kg/injection, schedule: Q01DX001 (ip), vehicle: saline); 98 % of control (dose: 400.0 mg/kg/injection, schedule: Q01DX001 (ip), vehicle: saline).

Take `CC1(C)CN1c1nc(N2CC2(C)C)nc(N2CC2(C)C)n1`: the T/C is, setting by setting: (dose: 44.0 mg/kg/injection, schedule: Q01DX001 (ip), vehicle: carboxymethylcellulose (CMC)) 106 % of control and 108 % of control; (dose: 66.0 mg/kg/injection, schedule: Q01DX001 (ip), vehicle: carboxymethylcellulose (CMC)) 106 % of control and 108 % of control; under setting [6], 113 % of control and 120 % of control; (dose: 150.0 mg/kg/injection, schedule: Q01DX001 (ip), vehicle: carboxymethylcellulose (CMC)) 116 % of control and 118 % of control; under setting [7], 118 % of control.

Consider `CCN(CC)c1ccc2c(c1)C(O)c1ccccc1-2` (centres undefined), for which the T/C runs as follows: under setting [10], 94 % of control and 108 % of control; under setting [11], 104 % of control and 105 % of control; under setting [12], 102 % of control and 108 % of control.

Regarding `CCO/C=C1\SC(=S)N(c2ccc(O)cc2)C1=O`, the T/C is, setting by setting: (dose: 12.5 mg/kg/injection, schedule: Q01DX009 (ip), vehicle: Klucel (hydroxypropylcellulose) (HPC)) 103 % of control; (dose: 25.0 mg/kg/injection, schedule: Q01DX009 (ip), vehicle: Klucel (hydroxypropylcellulose) (HPC)) 101 % of control; under setting [13], 105 % of control; under setting [14], 103 % of control; (dose: 100.0 mg/kg/injection, schedule: Q01DX009 (ip), vehicle: other) 104 % of control; under setting [3], 98 % of control. The T/C was 96 % of control (dose: 100.0 mg/kg/injection, schedule: Q04DX003 (ip), vehicle: saline sonified); 108 % of control (dose: 200.0 mg/kg/injection, schedule: Q01DX009 (ip), vehicle: other); 98 % of control under setting [4]; 97 % of control (dose: 200.0 mg/kg/injection, schedule: Q04DX003 (ip), vehicle: saline sonified); 89 % of control under setting [5]; 99 % of control (dose: 400.0 mg/kg/injection, schedule: Q04DX003 (ip), vehicle: saline sonified).

Regarding `N#Cc1c(=O)[nH]c2ccccc2[n+]1[O-]`, the T/C is, setting by setting: under setting [13], 107 % of control; under setting [14], 104 % of control.

For `COc1cc(C=Nc2cccc(Br)c2)ccc1N(CCCl)CCCl`, the T/C is 107 % of control (dose: 1.4 mg/kg/injection, schedule: Q01DX015 (ip), vehicle: carboxymethylcellulose (CMC)); 111 % of control (dose: 2.2 mg/kg/injection, schedule: Q01DX015 (ip), vehicle: carboxymethylcellulose (CMC)); 101 % of control (dose: 3.3 mg/kg/injection, schedule: Q01DX009 (ip), vehicle: saline); 113 % of control (dose: 3.3 mg/kg/injection, schedule: Q01DX015 (ip), vehicle: carboxymethylcellulose (CMC)); 116 % of control (dose: 5.0 mg/kg/injection, schedule: Q01DX009 (ip), vehicle: saline); 119 % of control and 121 % of control (dose: 5.0 mg/kg/injection, schedule: Q01DX015 (ip), vehicle: carboxymethylcellulose (CMC)). In addition, the T/C runs as follows: (dose: 9.0 mg/kg/injection, schedule: Q01DX009 (ip), vehicle: saline) 109 % of control; (dose: 9.0 mg/kg/injection, schedule: Q01DX015 (ip), vehicle: carboxymethylcellulose (CMC)) 159 % of control; (dose: 15.0 mg/kg/injection, schedule: Q01DX009 (ip), vehicle: saline) 111 % of control; (dose: 15.0 mg/kg/injection, schedule: Q01DX015 (ip), vehicle: carboxymethylcellulose (CMC)) 105 % of control; (dose: 22.0 mg/kg/injection, schedule: Q01DX001 (ip), vehicle: carboxymethylcellulose (CMC)) 111 % of control; (dose: 25.0 mg/kg/injection, schedule: Q01DX015 (ip), vehicle: carboxymethylcellulose (CMC)) 94 % of control and 97 % of control. Moreover, the T/C is, setting by setting: (dose: 25.0 mg/kg/injection, schedule: Q04DX003 (ip), vehicle: saline) 86 % of control; (dose: 33.0 mg/kg/injection, schedule: Q01DX001 (ip), vehicle: carboxymethylcellulose (CMC)) 108 % of control; under setting [9], 113 % of control; (dose: 50.0 mg/kg/injection, schedule: Q04DX003 (ip), vehicle: saline) 119 % of control; under setting [6], 117 % of control; under setting [7], 117 % of control. Further, the T/C under setting [8] was 123 % of control.

Consider `Cc1cc(C)cc(OCCO)c1`, for which the T/C runs as follows: (dose: 100.0 mg/kg/injection, schedule: Q04DX002 (ip), vehicle: Klucel (hydroxypropylcellulose) (HPC)) 97 % of control; (dose: 200.0 mg/kg/injection, schedule: Q04DX002 (ip), vehicle: Klucel (hydroxypropylcellulose) (HPC)) 102 % of control; (dose: 400.0 mg/kg/injection, schedule: Q04DX002 (ip), vehicle: Klucel (hydroxypropylcellulose) (HPC)) 91 % of control.
